Earlier results on 2 substances are cited in patent US4196122A, “Analgesic polypeptide” (American Home Products Corporation, priority 1977, dated 1980).

One data set concerns rats. Particulars: injection in the brain ventricle in rats; fully reversible by naloxone.
For another data set, the system named is opiate receptor. Particulars: brain homogenates.

For “H-Tyr-Gly-Gly-Phe-Leu-OH [leucine-enkephalin]”, in the data set with rats, the analgesia entry is on record as “induce a profound analgesia”. For the same substance, the “inhibition of stereospecific receptor binding of 3H-naloxone” value with opiate receptor is “inhibit the stereospecific receptor binding”.
Turning to “H-Tyr-Gly-Gly-Phe-Met-OH [methionine-enkephalin]”, the analgesia entry in the data set on rats is on record as “induce a profound analgesia”. The “inhibition of stereospecific receptor binding of 3H-naloxone” value in the data set with opiate receptor is “inhibit the stereospecific receptor binding”.
